Measurements from paper PMC5746060, “General and Modular Strategy for Designing Potent, Selective, and Pharmacologically Compliant Inhibitors of Rhomboid Proteases” (Cell Chemical Biology, 2017).
pIC50: −log10 of the molar value. Non-standard residues stand in square brackets, D forms with d. Residues, ends and D or L forms follow the SMILES beside them. ξ: configuration not given here. *: point of attachment. X3 = C[C@H](N*)C(=O)NS(C)(=O)=O; X4 = C[C@H](N*)C(=O)c1nccs1; boroAla = C[C@H](N*)B(O)O; ξA = CC(N)C(=O)O; CF3 = FC(F)(F)*; CH2Cl = ClC*

Molecular target: T1, Escherichia coli rhomboid GlpG (Escherichia coli, UniProt P09391)
T1 construct: made in house; host or cells: E. coli C41(DE3)
T1 sequence (P09391 whole entry): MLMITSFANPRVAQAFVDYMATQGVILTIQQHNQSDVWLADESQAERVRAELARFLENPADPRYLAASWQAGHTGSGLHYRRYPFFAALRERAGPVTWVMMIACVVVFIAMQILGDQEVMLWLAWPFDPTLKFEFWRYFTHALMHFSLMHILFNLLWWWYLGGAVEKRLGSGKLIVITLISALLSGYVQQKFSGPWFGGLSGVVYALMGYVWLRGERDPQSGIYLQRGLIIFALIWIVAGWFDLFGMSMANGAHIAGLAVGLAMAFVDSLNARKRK
Assay: in vitro GlpG inhibition assay with fluorogenic transmembrane peptide substrate (apparent IC50)
Assay type: biochemical
Settings: for pIC50: 1 hr preincubation, 10 μM fluorogenic substrate KSp35, 0.05% (w/v) DDM; for fold decrease in potency compared with the parent compound 9: N-terminal truncation series
From the text: To gain insight into these preferences and their possible interactions, we have generated tetra- and pentapeptidyl chloromethylketones (CMK or cmk henceforth) harboring amino acids preferred in positions P5 to P1 by the Escherichia coli rhomboid GlpG (GlpG henceforth), using the sequence background of the Providencia TatA ([Stevenson et al., 2007]), represented by the parent compound Ac-IATA-cmk. We measured the inhibitory properties of this series of compounds using a newly developed in vitro assay employing a fluorogenic transmembrane peptide substrate ([Ticha et al., 2017]) that faithfully represents a native rhomboid substrate.
Figure 1 The Potency of Substrate-Derived Inhibitors Can be Improved by Modifying the Amino acid Sequence of the P5 to P1 Region (A) The parent inhibitor Ac-IATA-cmk was modified by introducing strongly preferred amino acids ([Zoll et al., 2014]) into the P4, P3, P2, and P5 positions to yield the listed compounds. Their apparent IC50 values were measured with 1 hr preincubation using 10 μM fluorogenic substrate KSp35 and 0.05% (w/v) DDM. The reported values are best-fit means with SD representative of 2–3 measurements. (B) The sequence-optimized peptidyl chloromethylketones were soaked into the native crystals of GlpG and structures of the complexes were solved by X-ray diffraction (for statistics, see Table S1). […] Note that in the Ac-RVRHA-cmk structure (right), the side chain of the Arg residue in the P5 position of the inhibitor has not been modeled due to poor or missing electron density peaks. (C) Interactions of RVRHA-cmk with GlpG were analyzed by Ligplot+ ([Laskowski and Swindells, 2011]). Ligands are shown as thick sticks with carbons in green, proteins as thin sticks with carbons in gray, hydrogen bonds as yellow dashed lines, and amino acids involved in van der Waals contacts are highlighted as transparent surfaces. The inhibitor forms covalent bonds with S201 and H254 via the chloromethylketone warhead, and it hydrogen bonds with the backbone of residues 196–198 from the L3 loop and residues 248–250 from the L5 loop. van der Waals contacts with the inhibitor are formed by the residues from the L3 loop of GlpG, by S193 and Q189 from TMD3, and by F146 and M120 from the L1 loop that pack against the Val side chain of the P4 position of the inhibitor, as observed previously ([Zoll et al., 2014]). (D) The conformations of peptide inhibitors bound to the active site of GlpG were compared by performing structural alignment of the complexes of VRHAcmk (PDB: 5MT7), RVRHAcmk (PDB: 5MT8), IATAcmk (PDB: 4QO2), and VRMAcho (PDB: 5F5B) in PyMOL ([Schrodinger, 2012]). […] The backbone of the ligands in all complexes has virtually identical conformation with the exception of the distortion of the oxyanion by the chloromethylketone, and the biggest differences are found in the conformation of the P2 side chain, which is not surprising, because almost any side chain can be accommodated in this position ([Zoll et al., 2014]). TEXT PRINTED IN THE PICTURE: (A) AcIATAcmk: IC50 (μM): 213 | (A) AcVATAcmk: IC50 (μM): 450 | (A) AcIAHAcmk: IC50 (μM): 200 | (A) AcIRTAcmk: IC50 (μM): 84 | (A) AcVRHAcmk: IC50 (μM): 27 | (A) AcRVRHAcmk: IC50 (μM): 8
Figure 2 A Screen of Electrophilic Warheads for the Inhibition of Rhomboid Proteases The optimized parent sequence Ac-RVRHA was linked to electrophilic warheads commonly used for targeting serine proteases (reviewed in [Hedstrom, 2002], [Walker and Lynas, 2001]). The apparent IC50 values of the compounds were measured in 0.05% DDM using 10 μM substrate KSp35 ([Ticha et al., 2017]) with 1 hr preincubation. Given are the mean values of 2–3 measurements. […]

Compound	pIC50	fold decrease in potency compared with the parent compound 9 (ratio of apparent IC50 values)	fold less potent than the peptidyl boronate (ratio of apparent IC50 values)
CC(=O)N[C@@H](CCCNC(=N)N)C(=O)N[C@H](C(=O)N[C@@H](CCCNC(=N)N)C(=O)N[C@@H](Cc1c[nH]cn1)C(=O)NC(C)C(=O)C(F)(F)F)C(C)C (stereo partly shown) [trifluoromethylketone, AcRVRHA-trifluoromethylketone] (Ac-RVRH[ξA]-CF3)	< 3.00	–	–
CC(=O)N[C@H](C(=O)N[C@@H](CCCNC(=N)N)C(=O)N[C@@H](Cc1c[nH]cn1)C(=O)N[C@@H](C)C(=O)C(=O)NCCc1ccccc1)C(C)C [compound 12]	6.26	–	–
CC[C@H](C)[C@H](NC(C)=O)C(=O)N[C@@H](C)C(=O)N[C@H](C(=O)N[C@@H](C)C(=O)CCl)[C@@H](C)O [AcIATAcmk, reference compound] (Ac-IATA-CH2Cl)	3.67	–	–
CC(=O)N[C@@H](CCCNC(=N)N)C(=O)N[C@H](C(=O)N[C@@H](CCCNC(=N)N)C(=O)N[C@@H](Cc1c[nH]cn1)C(=O)N[C@@H](C)C(=O)NS(C)(=O)=O)C(C)C [acylsulfonamide, AcRVRHA-acylsulfonamide] (Ac-RVRH-X3)	< 3.00	–	–
CC(=O)N[C@@H](CCCNC(=N)N)C(=O)N[C@@H](Cc1c[nH]cn1)C(=O)N[C@@H](C)C(=O)C(=O)NCCc1ccccc1 [compound 13, Ac-RHA-CONH-phenylethyl]	5.05	~20 fold	–
CC(=O)N[C@@H](CCCNC(=N)N)C(=O)N[C@H](C(=O)N[C@@H](CCCNC(=N)N)C(=O)N[C@@H](Cc1c[nH]cn1)C(=O)N[C@@H](C)C(=O)c1nccs1)C(C)C [thiazolylketone, AcRVRHA-thiazolylketone] (Ac-RVRH-X4)	< 3.00	–	–
CC(=O)N[C@H](C(=O)N[C@@H](C)C(=O)N[C@H](C(=O)N[C@@H](C)C(=O)CCl)[C@@H](C)O)C(C)C [AcVATAcmk] (Ac-VATA-CH2Cl)	3.35	–	–
CC(=O)N[C@H](C(=O)N[C@@H](CCCNC(=N)N)C(=O)N[C@@H](Cc1c[nH]cn1)C(=O)N[C@@H](C)C(=O)CCl)C(C)C [AcVRHAcmk] (Ac-VRHA-CH2Cl)	4.57	–	–
CC(=O)N[C@@H](C)C(=O)C(=O)NCCc1ccccc1 [compound 15, Ac-A-CONH-phenylethyl]	< 3.00	~2,250 fold	–
CC(=O)N[C@@H](CCCNC(=N)N)C(=O)N[C@H](C(=O)N[C@@H](CCCNC(=N)N)C(=O)N[C@@H](Cc1c[nH]cn1)C(=O)N[C@@H](C)C(=O)CCl)C(C)C [AcRVRHAcmk] (Ac-RVRHA-CH2Cl)	5.10	–	–
CC[C@H](C)[C@H](NC(C)=O)C(=O)N[C@@H](C)C(=O)N[C@@H](Cc1c[nH]cn1)C(=O)N[C@@H](C)C(=O)CCl [AcIAHAcmk] (Ac-IAHA-CH2Cl)	3.70	–	–
CC(=O)N[C@@H](CCCNC(=N)N)C(=O)N[C@H](C(=O)N[C@@H](CCCNC(=N)N)C(=O)N[C@@H](Cc1c[nH]cn1)C(=O)N[C@@H](C)B(O)O)C(C)C [boronate, AcRVRHA-boronate] (Ac-RVRH-boroAla)	5.10	–	–
CC[C@H](C)[C@H](NC(C)=O)C(=O)N[C@@H](CCCNC(=N)N)C(=O)N[C@H](C(=O)N[C@@H](C)C(=O)CCl)[C@@H](C)O [AcIRTAcmk] (Ac-IRTA-CH2Cl)	4.08	–	–
Ac-RVRHA-NH2 [compound 1, AcRVRHA-CONH2]	3.69	–	about 25 fold
CC(=O)N[C@@H](Cc1c[nH]cn1)C(=O)N[C@@H](C)C(=O)C(=O)NCCc1ccccc1 [compound 14]	~4.19	~150 fold	–
